Among the data in ChEMBL document CHEMBL1152121, “Improvement of water solubility of non-competitive AMPA receptor antagonists by complexation with beta-cyclodextrin” (Bioorg Med Chem, 2008) are K and solubility values, retold here.

One may read the solubility as the dissolved amount per volume that the medium holds.

Data set [1] in a line: Binding affinity to beta-cyclodextrin in aqueous solution after 72 hrs by phase-solubility measurements. In kind it is ADME. The note with it: buffer.
Data set [2] is described as follows: Aqueous solubility of the compound. In kind it is physicochemical. The note with it: water.

≈ marks a conversion by molar mass, not a printed value.

`COc1cc2c(cc1OC)C(c1ccc(Cl)cc1)N(C(C)=O)CC2` (racemic) yielded a K in data set [1] of 1079 M⁻¹. This molecule also had a solubility in data set [2] of 3 mM (≈ 1040 µg/mL).
As for `COc1cc2c(cc1OC)[C@@H](c1ccc(Cl)cc1)N(C(C)=O)CC2`, the K in data set [1] amounted to 15889 M⁻¹. The same molecule gave a solubility in data set [2] of 5 mM (≈ 1730 µg/mL).
